Experimental data: US20250263395A1, “COMPOUNDS THAT MEDIATE PROTEIN DEGRADATION AND METHODS OF USE THEREOF” (Monte Rosa Therapeutics AG, priority 2022, published 2025)
pKi: −log10 of the molar value.

Columns and labels:
[1] = target: CDK2 (Homo sapiens (Human), UniProt P24941); assay: CDK2 NanoBiT assay (HiBiT-tagged CDK2 degradation); type: cell-based; details: HEK293, HEK293 clonal line, C-terminal HiBiT tag on CDK2, LgBiT; 24 hours
In short: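 HEK293 line with CRISPR knock-in C-terminal HiBiT-tagged CDK2 and stable LgBiT, preincubated 16 h with live-cell substrate, then compound-treated 24 h at 37° C, 5% CO2 (30 μM stock). Luminescence normalized to plate negative and positive controls; EC50 from 3-parameter logistic fit, Hill slope 1.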

[2] = target: CRBN-DDB1 (Homo sapiens (Human), UniProt Q96SW2); assay: CRBN HTRF assay (Cy5-Thalidomide probe displacement); type: binding; details: CRBN-DDB1 2.5 nM, Cy5-Thalidomide 100 nM, 30 min; Ki from geometric mean IC50 by Cheng-Prusoff
Sequence of CRBN-DDB1 (Q96SW2 whole entry): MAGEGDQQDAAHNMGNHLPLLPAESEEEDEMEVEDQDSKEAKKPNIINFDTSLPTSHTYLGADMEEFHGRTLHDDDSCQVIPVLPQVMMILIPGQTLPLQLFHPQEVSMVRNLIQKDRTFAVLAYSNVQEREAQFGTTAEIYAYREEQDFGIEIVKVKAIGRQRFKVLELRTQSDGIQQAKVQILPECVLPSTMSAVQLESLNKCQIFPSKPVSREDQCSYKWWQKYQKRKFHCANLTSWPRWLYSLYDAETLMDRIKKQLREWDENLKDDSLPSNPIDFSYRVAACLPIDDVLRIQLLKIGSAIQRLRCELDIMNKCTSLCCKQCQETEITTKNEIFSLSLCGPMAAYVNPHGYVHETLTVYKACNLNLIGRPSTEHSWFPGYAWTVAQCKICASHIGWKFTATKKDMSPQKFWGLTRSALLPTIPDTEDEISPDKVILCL
Sequence of CRBN-DDB1 (Q16531 whole entry partner): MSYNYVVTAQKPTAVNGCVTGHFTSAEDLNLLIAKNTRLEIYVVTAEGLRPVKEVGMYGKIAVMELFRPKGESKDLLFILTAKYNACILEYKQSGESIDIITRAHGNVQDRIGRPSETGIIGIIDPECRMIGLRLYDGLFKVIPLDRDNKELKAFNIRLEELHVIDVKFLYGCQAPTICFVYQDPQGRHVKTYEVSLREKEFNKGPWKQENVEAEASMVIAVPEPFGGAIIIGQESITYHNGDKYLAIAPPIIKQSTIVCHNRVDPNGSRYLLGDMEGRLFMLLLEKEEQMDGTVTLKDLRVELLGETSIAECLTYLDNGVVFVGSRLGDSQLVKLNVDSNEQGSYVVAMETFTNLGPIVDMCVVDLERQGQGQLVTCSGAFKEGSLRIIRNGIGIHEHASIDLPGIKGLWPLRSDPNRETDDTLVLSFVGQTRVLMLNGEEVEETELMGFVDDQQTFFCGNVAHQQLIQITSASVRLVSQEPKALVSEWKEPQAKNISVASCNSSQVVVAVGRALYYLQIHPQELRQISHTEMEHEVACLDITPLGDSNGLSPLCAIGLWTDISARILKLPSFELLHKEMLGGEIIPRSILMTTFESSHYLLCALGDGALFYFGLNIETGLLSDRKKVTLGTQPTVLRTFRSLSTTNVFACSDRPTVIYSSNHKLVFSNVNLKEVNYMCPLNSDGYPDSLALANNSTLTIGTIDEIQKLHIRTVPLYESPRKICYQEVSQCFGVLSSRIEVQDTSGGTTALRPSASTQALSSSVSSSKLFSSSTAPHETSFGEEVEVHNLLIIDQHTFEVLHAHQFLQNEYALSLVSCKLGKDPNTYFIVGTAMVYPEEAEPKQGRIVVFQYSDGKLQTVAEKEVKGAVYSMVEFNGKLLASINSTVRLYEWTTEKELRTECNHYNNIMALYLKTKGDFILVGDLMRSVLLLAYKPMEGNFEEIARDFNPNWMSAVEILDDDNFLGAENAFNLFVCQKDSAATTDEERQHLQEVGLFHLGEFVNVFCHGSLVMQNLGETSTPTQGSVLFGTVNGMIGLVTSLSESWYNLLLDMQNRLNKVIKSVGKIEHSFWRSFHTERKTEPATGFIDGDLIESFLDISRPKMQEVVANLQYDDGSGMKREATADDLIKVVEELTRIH
In short: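 HTRF displacement of Cy5-thalidomide probe (100 nM) from His-CRBN-DDB1 (2.5 nM) with anti-His terbium cryptate, in HEPES/NaCl/TCEP/EDTA/Tween20 buffer. 10-point 1:3 compound series, 30 min at ambient temperature; signal normalised to DMSO and lenalidomide controls, IC50 fitted and Ki derived by Cheng-Prusoff.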

Compound | Dmax [1] [%] | pKi [2]
O=C1CCC(c2c(F)cc(N3CC(NC(=O)OC4CN(c5ccccn5)C4)C3)cc2F)C(=O)N1 (stereo not drawn) [Compound 83, 1-(pyridin-2-yl)azetidin-3-yl (1-(4-(2,6-dioxopiperidin-3-yl)-3,5-difluorophenyl)azetidin-3-yl)carbamate] | 50 to 80 | ≥ 7.00
O=C1CCC(c2c(F)cc(N3CC(NC(=O)OCC#CC4CC4)C3)cc2F)C(=O)N1 (stereo not drawn) [Compound 84, 3-cyclopropylprop-2-yn-1-yl (1-(4-(2,6-dioxopiperidin-3-yl)-3,5-difluorophenyl)azetidin-3-yl)carbamate] | 10 to 50 | ≥ 7.00
Cc1cc(N2CC(NC(=O)OC3CN(C(=O)N(C)C4CC4)C3)C2)cc(C)c1C1CCC(=O)NC1=O (stereo not drawn) [Compound 86, 1-(cyclopropyl(methyl)carbamoyl)azetidin-3-yl (1-(4-(2,6-dioxopiperidin-3-yl)-3,5-dimethylphenyl)azetidin-3-yl)carbamate] | 10 to 50 | 6.00 to 7.00
Cc1cc(N2CC(NC(=O)OC3CN(C(=O)N(C)C4CC4)C3)C2)cc(Cl)c1C1CCC(=O)NC1=O (stereo not drawn) [Compound 87, 1-(cyclopropyl(methyl)carbamoyl)azetidin-3-yl (1-(3-chloro-4-(2,6-dioxopiperidin-3-yl)-5-methylphenyl)azetidin-3-yl)carbamate] | 50 to 80 | 6.00 to 7.00
CN(C(=O)N1CCC(OC(=O)NC2CN(c3cc(F)c(C4CCC(=O)NC4=O)c(F)c3)C2)CC1)C1CC1 (stereo not drawn) [Compound 88, 1-(cyclopropyl(methyl)carbamoyl)piperidin-4-yl (1-(4-(2,6-dioxopiperidin-3-yl)-3,5-difluorophenyl)azetidin-3-yl)carbamate] | 50 to 80 | ≥ 7.00
N#Cc1cc(C2CCC(=O)NC2=O)ccc1N1CC(Nc2nnc(C3CC4(CCC4)C3)o2)C1 (stereo not drawn) [Compound 89, 5-(2,6-dioxopiperidin-3-yl)-2-(3-((5-(spiro[3.3]heptan-2-yl)-1,3,4-oxadiazol-2-yl)amino)azetidin-1-yl)benzonitrile] | 50 to 80 | < 6.00
COc1c(N2CC(Nc3nnc(-c4ccc(OC(F)(F)F)cc4)o3)C2)ccc(C2CCC(=O)NC2=O)c1F (stereo not drawn) [Compound 90, 3-(2-fluoro-3-methoxy-4-(3-((5-(4-(trifluoromethoxy)phenyl)-1,3,4-oxadiazol-2-yl)amino)azetidin-1-yl)phenyl)piperidine-2,6-dione] | > 80 | 6.00 to 7.00
COc1c(N2CC(Nc3nnc(C4CC5(CCC5)C4)o3)C2)ccc(C2CCC(=O)NC2=O)c1Cl (stereo not drawn) [Compound 91, 3-(2-chloro-3-methoxy-4-(3-((5-(spiro[3.3]heptan-2-yl)-1,3,4-oxadiazol-2-yl)amino)azetidin-1-yl)phenyl)piperidine-2,6-dione] | > 80 | 6.00 to 7.00
O=C1CCC(c2c(F)cc(N3C[C@H](Nc4nnc(C5CC6(CCC6)C5)o4)CC3=O)cc2F)C(=O)N1 (stereo partly drawn) [Compound 92, 3-(2,6-difluoro-4-((R)-2-oxo-4-((5-(spiro[3.3]heptan-2-yl)-1,3,4-oxadiazol-2-yl)amino)pyrrolidin-1-yl)phenyl)piperidine-2,6-dione] | 50 to 80 | ≥ 7.00
O=C1CCC(c2c(F)cc(N3CC(Nc4nnc(-c5ccc(Cl)cc5)o4)C3)cc2F)C(=O)N1 (stereo not drawn) [Compound 93, 3-(4-(3-((5-(4-chlorophenyl)-1,3,4-oxadiazol-2-yl)amino)azetidin-1-yl)-2,6-difluorophenyl)piperidine-2,6-dione] | > 80 | 6.00 to 7.00
COc1c(N2CC(Nc3nnc(C4CC5(CCC5)C4)o3)C2)ccc(C2CCC(=O)NC2=O)c1F (stereo not drawn) [Compound 94, 3-(2-fluoro-3-methoxy-4-(3-((5-(spiro[3.3]heptan-2-yl)-1,3,4-oxadiazol-2-yl)amino)azetidin-1-yl)phenyl)piperidine-2,6-dione] | > 80 | 6.00 to 7.00
N#Cc1ccc(-c2nnc(NC3CN(c4cc(F)c(C5CCC(=O)NC5=O)c(F)c4)C3)o2)cc1 (stereo not drawn) [Compound 95, 4-(5-((1-(4-(2,6-dioxopiperidin-3-yl)-3,5-difluorophenyl)azetidin-3-yl)amino)-1,3,4-oxadiazol-2-yl)benzonitrile] | > 80 | ≥ 7.00
Cc1ccccc1-c1nnc(NC2CN(c3cc(F)c(C4CCC(=O)NC4=O)c(F)c3)C2)o1 (stereo not drawn) [Compound 96, 3-(2,6-difluoro-4-(3-((5-(o-tolyl)-1,3,4-oxadiazol-2-yl)amino)azetidin-1-yl)phenyl)piperidine-2,6-dione] | > 80 | ≥ 7.00
Cc1cccc(-c2nnc(NC3CN(c4cc(F)c(C5CCC(=O)NC5=O)c(F)c4)C3)o2)c1 (stereo not drawn) [Compound 97, 3-(2,6-difluoro-4-(3-((5-(m-tolyl)-1,3,4-oxadiazol-2-yl)amino)azetidin-1-yl)phenyl)piperidine-2,6-dione] | > 80 | 6.00 to 7.00
COc1ccc(-c2nnc(NC3CN(c4cc(F)c(C5CCC(=O)NC5=O)c(F)c4)C3)o2)cc1 (stereo not drawn) [Compound 98, 3-(2,6-difluoro-4-(3-((5-(4-methoxyphenyl)-1,3,4-oxadiazol-2-yl)amino)azetidin-1-yl)phenyl)piperidine-2,6-dione] | > 80 | ≥ 7.00
Cc1ccc(-c2nnc(NC3CN(c4cc(F)c(C5CCC(=O)NC5=O)c(F)c4)C3)o2)cc1 (stereo not drawn) [Compound 99, 3-(2,6-difluoro-4-(3-((5-(p-tolyl)-1,3,4-oxadiazol-2-yl)amino)azetidin-1-yl)phenyl)piperidine-2,6-dione] | > 80 | 6.00 to 7.00
O=C1CCC(c2c(F)cc(N3CC(Nc4nnc(Cc5ccccc5)o4)C3)cc2F)C(=O)N1 (stereo not drawn) [Compound 100, 3-(4-(3-((5-benzyl-1,3,4-oxadiazol-2-yl)amino)azetidin-1-yl)-2,6-difluorophenyl)piperidine-2,6-dione] | 50 to 80 | ≥ 7.00
CC1(Nc2nnc(C3CC4(CCC4)C3)o2)CN(c2cc(F)c(C3CCC(=O)NC3=O)c(F)c2)C1 (stereo not drawn) [Compound 101, 3-(2,6-difluoro-4-(3-methyl-3-((5-(spiro[3.3]heptan-2-yl)-1,3,4-oxadiazol-2-yl)amino)azetidin-1-yl)phenyl)piperidine-2,6-dione] | 50 to 80 | ≥ 7.00
O=C1CCC(c2c(Cl)cc(N3CC(Nc4nnc(C5CC6(CCC6)C5)o4)C3)cc2Cl)C(=O)N1 (stereo not drawn) [Compound 102, 3-(2,6-dichloro-4-(3-((5-(spiro[3.3]heptan-2-yl)-1,3,4-oxadiazol-2-yl)amino)azetidin-1-yl)phenyl)piperidine-2,6-dione] | > 80 | ≥ 7.00
O=C1CCC(c2c(F)cc(N3CC(Nc4nnc(-c5ccc(OC(F)(F)F)cc5)o4)C3)cc2F)C(=O)N1 (stereo not drawn) [Compound 103, 3-(2,6-difluoro-4-(3-((5-(4-(trifluoromethoxy)phenyl)-1,3,4-oxadiazol-2-yl)amino)azetidin-1-yl)phenyl)piperidine-2,6-dione] | > 80 | ≥ 7.00
O=C1CCC(c2c(F)cc(N3CC(Nc4nnc(-c5ccccc5)o4)C3)cc2F)C(=O)N1 (stereo not drawn) [Compound 104, 3-(2,6-difluoro-4-(3-((5-phenyl-1,3,4-oxadiazol-2-yl)amino)azetidin-1-yl)phenyl)piperidine-2,6-dione] | > 80 | ≥ 7.00
O=C1CCC(c2c(F)cc(N3CC(Nc4ncn(C5CC6(CCC6)C5)n4)C3)cc2F)C(=O)N1 (stereo not drawn) [Compound 105, 3-(2,6-difluoro-4-(3-((1-(spiro[3.3]heptan-2-yl)-1H-1,2,4-triazol-3-yl)amino)azetidin-1-yl)phenyl)piperidine-2,6-dione] | 50 to 80 | 6.00 to 7.00
O=C1CCC(c2c(F)cc(N3CC(Nc4cc(C5CC6(CCC6)C5)ccn4)C3)cc2F)C(=O)N1 (stereo not drawn) [Compound 106, 3-(2,6-difluoro-4-(3-((4-(spiro[3.3]heptan-2-yl)pyridin-2-yl)amino)azetidin-1-yl)phenyl)piperidine-2,6-dione] | 50 to 80 | ≥ 7.00
O=C1CCC(c2c(F)cc(N3CC(Nc4nnc(C5CC6(CCC6)C5)o4)C3)cc2F)C(=O)N1 (stereo not drawn) [Compound 107, 3-(2,6-difluoro-4-(3-((5-(spiro[3.3]heptan-2-yl)-1,3,4-oxadiazol-2-yl)amino)azetidin-1-yl)phenyl)piperidine-2,6-dione] | > 80 | ≥ 7.00
CN(C(=O)N1CC(OC(=S)NC2CN(c3cc(F)c(C4CCC(=O)NC4=O)c(F)c3)C2)C1)C1CC1 (stereo not drawn) [Compound 108, O-(1-(cyclopropyl(methyl)carbamoyl)azetidin-3-yl) (1-(4-(2,6-dioxopiperidin-3-yl)-3,5-difluorophenyl)azetidin-3-yl)carbamothioate] | > 80 | ≥ 7.00
Cc1ccc(N(C)C(=O)N2CC(OC(=O)NC3CN(c4cc(F)c(C5CCC(=O)NC5=O)c(F)c4)C3)C2)cn1 (stereo not drawn) [Compound 109, 1-(methyl (6-methylpyridin-3-yl)carbamoyl) azetidin-3-yl (1-(4-(2,6-dioxopiperidin-3-yl)-3,5-difluorophenyl)azetidin-3-yl) carbamate] | 10 to 50 | ≥ 7.00
Cc1ccc(N(C)C(=O)N2CC(OC(=O)NC3CN(c4cc(F)c(C5CCC(=O)NC5=O)c(F)c4)C3)C2)nc1 (stereo not drawn) [Compound 110, 1-(methyl (5-methylpyridin-2-yl)carbamoyl) azetidin-3-yl (1-(4-(2,6-dioxopiperidin-3-yl)-3,5-difluorophenyl)azetidin-3-yl) carbamate] | 10 to 50 | ≥ 7.00
